The test system of series [1] is A-431. Briefly: Antiproliferative activity against human A431 cells assessed as reduction in cell viability incubated for 24 hrs by BrdU based ELISA. Format: functional. As to conditions: A-431, 24 h. In general terms: In an ELISA, binding on a coated surface is turned into a signal by an enzyme label.
Series [2] concerns MCF7. Briefly: Antiproliferative activity against human MCF7 cells assessed as reduction in cell viability incubated for 24 hrs by BrdU based ELISA. The class given is functional. As to conditions: MCF7, 24 h.
Series [3] deals with MDA-MB-436. The series is described as follows: Antiproliferative activity against human MDA-MB-436 cells assessed as reduction in cell viability incubated for 24 hrs by BrdU based ELISA. The class given is functional. As to conditions: MDA-MB-436, 24 h.
For series [4], the target named is T1, CYP51 (lanosterol 14-alpha demethylase) (Homo sapiens, UniProt Q16850).
T1 sequence (Q16850 whole entry): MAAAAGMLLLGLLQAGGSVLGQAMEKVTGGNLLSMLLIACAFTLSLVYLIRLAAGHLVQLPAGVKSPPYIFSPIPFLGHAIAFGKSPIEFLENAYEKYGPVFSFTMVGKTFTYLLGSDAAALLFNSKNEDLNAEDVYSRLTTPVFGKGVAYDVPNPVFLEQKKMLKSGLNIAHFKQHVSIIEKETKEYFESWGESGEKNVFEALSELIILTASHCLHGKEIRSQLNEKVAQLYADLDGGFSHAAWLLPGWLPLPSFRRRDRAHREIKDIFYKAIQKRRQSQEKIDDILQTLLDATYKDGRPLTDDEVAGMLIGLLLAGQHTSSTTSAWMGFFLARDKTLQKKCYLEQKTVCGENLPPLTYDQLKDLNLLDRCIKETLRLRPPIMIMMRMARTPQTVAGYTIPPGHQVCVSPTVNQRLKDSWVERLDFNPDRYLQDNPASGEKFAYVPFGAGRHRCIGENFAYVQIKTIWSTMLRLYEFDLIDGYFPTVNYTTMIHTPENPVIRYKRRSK
The series is described as follows: Inhibition of recombinant full length human CYP51 expressed in Escherichia coli at inhibitor/enzyme ratio 50/1 incubated for 1 hr using [3H] lanosterol as substrate by HPLC analysis relative to control. Also on record: concentration or dose not given beside the values. As to conditions: probe [3H] lanosterol.

Series [5] addresses T2, Lanosterol 14-alpha demethylase (Homo sapiens, UniProt Q16850).
T2 sequence (Q16850 whole entry): T1 sequence (Q16850 whole entry)
Briefly: Binding affinity to recombinant full length human CYP51 expressed in Escherichia coli incubated for 30 sec using [3H] labelled substrate by HPLC analysis.

Series [6] is described as follows: Lipophilicity, logP of compound. Format: physicochemical. As to conditions: octanol/water.
In series [7] the target is T2, Lanosterol 14-alpha demethylase. Briefly: Inhibition of recombinant full length human CYP51 expressed in Escherichia coli incubated for 1 hr using [3H] lanosterol as substrate by HPLC analysis.
Series [8] has the same target. The series is described as follows: Inhibition of recombinant full length human CYP51 expressed in Escherichia coli incubated for 1 min using [3H] lanosterol as substrate by HPLC analysis.
The subject of series [9] is A549. The series is described as follows: Antiproliferative activity against human A549 cells assessed as reduction in cell viability incubated for 24 hrs by BrdU based ELISA. Format: functional. As to conditions: A549, 24 h.
The target of series [10] is T1, CYP51 (lanosterol 14-alpha demethylase). Briefly: Inhibition of recombinant full length human CYP51 expressed in Escherichia coli at inhibitor/enzyme ratio 25/1 incubated for 1 hr using [3H] lanosterol as substrate by HPLC analysis relative to control. As to conditions: probe [3H] lanosterol.
Series [11] is described as follows: Inhibition of human CYP51 T314I mutant expressed in Escherichia coli incubated for 1 hr using [3H] lanosterol as substrate by HPLC analysis.

pEC50, pIC50, pKd: −log10 of the molar value.

For `O=C(N[C@@H](Cn1ccnc1)c1ccc(-c2ccc(F)cc2)cc1F)c1ccc(-c2nnc(-c3ccccc3)o2)cc1`, the pEC50 in series [1], in series [2], in [3] and in [9] was 4.52 to 5.00 each time. The inhibition – broadly, the drop in the measured response relative to a control, in per cent – at 1 h in [4] came to 64%; in [10], 33%. Moreover, the pKd (as a rule, −log10 of the Kd, conventionally taken in molar units) in series [5] was 7.05. The log partition coefficient (logP) – broadly, the decadic logarithm of the partition coefficient of the neutral form, usually between octanol and water – in series [6] (read-out: logP) stood at 5.4. The results for the pIC50 in series [7] and in series [8] were 4.61 and greater than 6.30, respectively.

Regarding `O=C(N[C@@H](Cn1ccnc1)c1ccc(-c2ccc(F)cc2)cc1Cl)c1ccc(-c2nnc(-c3ccccc3)o2)cc1`, the inhibition at 1 h stood at 91% in series [4] and 73% in [10]. Moreover, in series [6], the log partition coefficient (logP) is 6.9. Besides, the negative-log IC50 (pIC50) (usually −log10 of the IC50, conventionally taken in molar units) was 5.23 in series [7], 5.68 in series [11] and greater than 6.30 in [8].

Consider `O=C(N[C@@H](Cn1ccnc1)c1ccc(-c2ccc(F)cc2)cc1Cl)c1ccc(-c2nnc(-c3cc(F)cc(-c4ccccn4)c3)o2)cc1`, for which the inhibition at 1 h in series [4] came to 96%; in [10], 95%. Besides, the pKd in series [5] was 6.82. Besides, the logP in series [6] (read-out: logP) worked out at 6.8. The negative logarithm of the IC50 (pIC50) in series [7] was greater than 6.00; in [8], greater than 6.30.

Take `CS(=O)(=O)c1cc(Br)cc(-c2nnc(-c3ccc(C(=O)N[C@@H](Cn4ccnc4)c4ccc(-c5ccc(F)cc5)cc4Cl)cc3)o2)c1`: the inhibition at 1 h stood at 89% in series [4] and 82% in series [10]. Moreover, in series [5], the pKd is 6.89. The log partition coefficient (logP) in series [6] (read-out: logP) was 5.4. The pIC50 in series [7] was 5.44; in [8] it was greater than 6.30.

`O=C(N[C@@H](Cn1ccnc1)c1ccc(-c2ccc(F)cc2)cc1Cl)c1ccc(-c2nnc(-c3cc(Br)cc4ccccc34)o2)cc1`: the figures for the inhibition at 1 h in [4] and in series [10] were 73% and 25%, respectively. In [5], the pKd was 6.33. The logP in [6] (read-out: logP) was determined as 7.7. The negative-log IC50 (pIC50) is 4.82 in [7] and greater than 6.30 in series [8].

For the molecule `O=C(N[C@@H](Cn1ccnc1)c1ccc(-c2ccc(F)cc2)cc1-c1ccco1)c1ccc(-c2nnc(-c3ccccc3)o2)cc1`, the inhibition at 1 h turned out to be 8% in series [4] and 0% in [10]. Moreover, the logP in [6] (read-out: logP) came out at 5.8. For the same molecule, the negative-log IC50 (pIC50) in [7] was less than 4.60; in series [8], 5.28.

`O=C(N[C@@H](Cn1ccnc1)c1ccc(-c2ccc(F)cc2)cc1-c1ccccc1)c1ccc(-c2nnc(-c3ccccc3)o2)cc1`: the inhibition at 1 h amounted to 41% in series [4] and 0% in [10]. The logP in series [6] (read-out: logP) amounted to 5.3. The negative logarithm of the IC50 (pIC50) in series [7] was less than 4.60; in series [8], 5.82.

As to `CS(=O)(=O)c1cc(-c2ccccn2)cc(-c2nnc(-c3ccc(C(=O)N[C@@H](Cn4ccnc4)c4ccc(-c5ccc(F)cc5)cc4Cl)cc3)o2)c1`, the inhibition at 1 h in [4] turned out to be 90%; in series [10] it was 82%. For the same molecule, the pKd in [5] is 7.70. Further, the logP in series [6] (read-out: logP) was determined as 5.3. The pIC50 in [7] was 5.36; in series [8] it was greater than 6.30.

`O=C(N[C@@H](Cn1ccnc1)c1ccc(-c2ccc(F)cc2)cc1Cl)c1ccc(-c2nnc(-c3cc(-c4ccccn4)ccc3F)o2)cc1`: the inhibition at 1 h in [4] turned out to be 93%. In addition, in series [6] (read-out: logP), the logP came to 6.8.

Take `COc1ccc(-c2cc(-c3ccc(F)cc3)ccc2[C@H](Cn2ccnc2)NC(=O)c2ccc(-c3nnc(-c4ccccc4)o3)cc2)cc1`: the inhibition at 1 h in series [4] and in [10] was 0% throughout. Besides, the logP in series [6] (read-out: logP) was found to be 5.8. In addition, the values for the pIC50 in series [7] and in series [8] were less than 4.60 and 4.92, respectively.

For the molecule `O=C(N[C@@H](Cn1ccnc1)c1ccc(-c2ccc(F)cc2)cc1Cl)c1ccc(-c2nnc(-c3cc(F)cc(-c4ncncc4F)c3)o2)cc1`, the inhibition at 1 h in series [4] and in series [10] was 98% throughout. The negative-log Kd (pKd) in series [5] is 7.05. In addition, in [6] (read-out: logP), the logP was 6.3. Further, the figures for the pIC50 in [7] and in series [8] were greater than 6.00 and greater than 6.30, respectively.

As to `O=C(N[C@@H](Cn1ccnc1)c1ccc(-c2ccc(F)cc2)c2ccccc12)c1ccc(-c2nnc(-c3ccccc3)o2)cc1`, the inhibition at 1 h in series [4] amounted to 1%; in series [10], 0%. Further, in [6] (read-out: logP), the log partition coefficient (logP) is 5.8. Besides, the pIC50 in series [7] was less than 4.60; in series [8], 5.52.

The values above are taken from ChEMBL document CHEMBL4321832 (J Med Chem, 2019).
